The source of these data is patent US20090018189A1, “Hormone Sensitive Lipase Modulators And Methods Of Use” (DEVIRIS, priority 2007, published 2009).

The assay has as its target T1, recombinant HSL (Homo sapiens, UniProt Q05469).
T1 sequence (Q05469 1-1076): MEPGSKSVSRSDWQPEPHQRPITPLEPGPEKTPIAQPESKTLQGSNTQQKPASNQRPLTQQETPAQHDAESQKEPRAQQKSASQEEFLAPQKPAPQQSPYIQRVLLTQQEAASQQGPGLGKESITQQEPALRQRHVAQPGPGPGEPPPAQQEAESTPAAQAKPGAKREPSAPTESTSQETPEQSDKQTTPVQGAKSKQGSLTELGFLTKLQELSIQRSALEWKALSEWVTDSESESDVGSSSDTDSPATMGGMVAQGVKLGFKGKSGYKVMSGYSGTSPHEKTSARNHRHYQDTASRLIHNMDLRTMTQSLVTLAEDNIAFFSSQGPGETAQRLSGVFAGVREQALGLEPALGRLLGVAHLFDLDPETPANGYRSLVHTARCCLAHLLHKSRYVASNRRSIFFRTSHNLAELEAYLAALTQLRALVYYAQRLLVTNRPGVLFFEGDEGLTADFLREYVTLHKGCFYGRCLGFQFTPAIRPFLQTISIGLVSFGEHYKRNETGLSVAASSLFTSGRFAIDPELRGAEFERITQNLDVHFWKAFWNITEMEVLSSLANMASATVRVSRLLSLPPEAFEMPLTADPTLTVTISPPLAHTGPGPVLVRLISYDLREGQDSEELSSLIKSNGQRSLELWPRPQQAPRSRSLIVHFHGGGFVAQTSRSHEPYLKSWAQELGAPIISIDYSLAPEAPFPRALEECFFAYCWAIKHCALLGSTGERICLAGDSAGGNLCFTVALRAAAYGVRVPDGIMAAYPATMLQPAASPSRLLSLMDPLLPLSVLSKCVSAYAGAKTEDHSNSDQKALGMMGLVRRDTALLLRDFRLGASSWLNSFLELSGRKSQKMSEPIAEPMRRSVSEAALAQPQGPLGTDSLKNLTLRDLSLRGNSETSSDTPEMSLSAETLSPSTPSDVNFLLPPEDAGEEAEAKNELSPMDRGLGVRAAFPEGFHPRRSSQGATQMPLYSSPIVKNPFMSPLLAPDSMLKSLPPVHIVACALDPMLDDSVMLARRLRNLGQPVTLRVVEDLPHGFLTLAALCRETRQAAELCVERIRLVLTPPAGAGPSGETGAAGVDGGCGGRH
The assay is described as follows: Inhibition of recombinant HSL activity. Format: biochemical. How it is done:
Compounds 1-7 were dissolved in 20% DMSO as 10 mg/mL stock, and used in assays with recombinant HSL to test for the potency for inhibiting HSL activity, the protocol for which is described in International Patent Application No. PCT/US07/00284, which is incorporated by reference in its entirety herein. Each compound's inhibitory effect on HSL is shown in FIG. 1 and 2, with Compound 1 having an IC50 of about 0.1 to about 0.2 mg/mL and Compound 5 showing about 40% inhibition at 0.4 mg/mL.

For the molecule `CCN(CC)C(CC(=O)OCCc1ccc(O)cc1)CC(=O)OCc1ccccc1` (centres unmarked) [Compound 1], the concentration for half-maximal inhibition (IC50) (in general, the midpoint of a concentration-inhibition curve) (compound stock 10 mg/mL in 20% DMSO, read-out: IC50 for inhibiting HSL activity) was 242 to 484 µM. In the case of `COC(=O)C(=O)NC(CC(=O)NCCc1ccc(O)cc1)CC(=O)OCc1ccccc1` (centres unmarked) [Compound 5], the inhibition – broadly, the share of the control response that was lost under treatment – at 400 µg/mL (at 0.4 mg/mL) was about 40%.
